Literature values in paper PMC11915035, “Characterization of [^3H]Propionylated Human Peptide YY-A New Probe for Neuropeptide Y Y2 Receptor Binding Studies” (ACS Pharmacology & Translational Science, 2025).
Read-outs that look alike come from different tables or passages of the source. Values belong to the compound of their own block, whether it stands above or below them.

How the values were obtained:
[1] = molecular target: pY2R; conditions: COS-7 pY2R; 50 mM HEPES, 0 mM Na+; species of peptide not indicated; ref Rose et al.[2]
From the text: (§1) Table 1 Reported Peptidic Radioligands Used for Y2R Binding Studies | column: Kd [nM]

[2] = tested on: Y2R; conditions: read-out: literature IC50, sodium-containing buffer
[3] = tested on: Y1R, Y2R, Y4R, Y5R; conditions: ref 2−4
From the text: Activation of all four receptor subtypes is induced by the homologous neuropeptides NPY, peptide YY (PYY), and pancreatic polypeptide (PP).[1]

[4] = molecular target: calf hippocampus membrane preparation; conditions: Krebs–Ringer/20 mM HEPES, 137 mM Na+; species of peptide not indicated; ref Czerwiec et al.[34]
From the text: as §1

[5] = molecular target: rat hippocampal membrane preparation; conditions: KRP buffer, […] Na+; species of peptide not indicated; ref Dumont et al.[25]
From the text: as §1

Compound: [^125I]PYY: iodine-125 labeled derivative of PYY; species porcine or not indicated
Kd [1]: 270 pM

IC50 ([2]; ref Shoblock et al.[39]): 8500 pM
IC50 ([2]; ref Swanson et al.[59]): 6000 pM
Compound: CCN(CC)C(=O)C(c1ccccc1)N1CCN(c2ccc(NC(=O)c3ccccc3-c3cccnc3)cc2F)CC1 (stereo not shown) [JNJ31020028, N-(4–4-[2-(diethylamino)-2-oxo-1-phenylethyl]piperazin-1-yl-3-fluorophenyl)-2-pyridin-3-ylbenzamide]

Compound: pancreatic polypeptide [PP]
YR binding preference [3]: clear preference for Y4R over the other YRs

Compound: [^125I]NPY: iodine-125 labeled derivative of NPY; species human or not indicated
Kd [1]: 580 pM

Kd [4]: 700 pM
Compound: N-[^3H]propionyl-NPY: tritiated NPY derivative, most likely [^3H]propionylated at the ε-amino group of Lys^4

Compound: [^125I]PYY (3–36): iodine-125 labeled derivative of PYY
Kd [5]: 13 pM
